Measurements published in patent US20240197728A1, “METHODS AND PHARMACEUTICAL COMPOSITIONS FOR TREATING REFRACTORY EPILEPSY” (INSERM (INSTITUT NATIONAL DE LA SANTÉ ET DE LA RECHERCHE …, priority 2021, published 2024).

Columns and labels:
KCC2 [1] = target: T1, KCC2 (Rattus norvegicus, UniProt Q63633); assay: Somato-dendritic EGABA gradient (chloride extrusion), whole-cell patch clamp of hippocampal neurons; assay type: cell-based
T1 construct: endogenous in cells; host or cells: primary rat hippocampal neurons (E18-19 Sprague-Dawley)
T1 sequence (Q63633 1-1116 isoform Q63633-2): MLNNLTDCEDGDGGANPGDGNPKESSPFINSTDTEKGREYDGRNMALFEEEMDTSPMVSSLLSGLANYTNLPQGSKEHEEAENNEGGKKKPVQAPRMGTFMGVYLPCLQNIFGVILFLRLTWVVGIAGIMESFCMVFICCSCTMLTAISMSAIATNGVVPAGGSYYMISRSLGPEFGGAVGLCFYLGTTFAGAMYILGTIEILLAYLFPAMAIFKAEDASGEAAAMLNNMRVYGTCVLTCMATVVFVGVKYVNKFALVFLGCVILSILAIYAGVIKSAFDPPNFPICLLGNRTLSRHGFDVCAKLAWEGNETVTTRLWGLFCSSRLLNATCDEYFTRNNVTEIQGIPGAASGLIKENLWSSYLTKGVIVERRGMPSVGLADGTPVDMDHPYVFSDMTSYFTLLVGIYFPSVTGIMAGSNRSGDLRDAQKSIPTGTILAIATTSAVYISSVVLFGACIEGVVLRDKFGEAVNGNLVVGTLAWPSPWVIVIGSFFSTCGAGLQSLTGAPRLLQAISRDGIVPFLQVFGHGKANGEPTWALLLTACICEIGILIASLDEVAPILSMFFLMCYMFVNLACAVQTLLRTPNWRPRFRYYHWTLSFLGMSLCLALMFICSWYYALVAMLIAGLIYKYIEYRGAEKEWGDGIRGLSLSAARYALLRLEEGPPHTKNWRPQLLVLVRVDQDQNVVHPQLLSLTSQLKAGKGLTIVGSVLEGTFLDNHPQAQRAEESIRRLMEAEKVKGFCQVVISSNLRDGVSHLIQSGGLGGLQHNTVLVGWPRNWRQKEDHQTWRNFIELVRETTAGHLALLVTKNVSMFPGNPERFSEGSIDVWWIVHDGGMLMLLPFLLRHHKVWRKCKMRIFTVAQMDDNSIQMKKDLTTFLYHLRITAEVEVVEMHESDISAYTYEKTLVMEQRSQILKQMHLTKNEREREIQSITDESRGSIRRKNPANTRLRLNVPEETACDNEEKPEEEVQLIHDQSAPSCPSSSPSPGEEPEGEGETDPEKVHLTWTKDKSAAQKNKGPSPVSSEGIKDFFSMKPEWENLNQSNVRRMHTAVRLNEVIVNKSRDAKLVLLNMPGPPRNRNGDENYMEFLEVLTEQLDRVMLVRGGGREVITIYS

KCC2 [2] = assay: Surface biotinylation and immunoblot of KCC2 in hippocampal cultures; assay type: cell-based, rat; settings: for effect on total KCC2 expression: hippocampal cultures
Method: Primary cultures of hippocampal neurons were prepared as previously described. Briefly, hippocampi were dissected from embryonic day 18-19 Sprague-Dawley rats of either sex. Tissue was then trypsinized (0.25% v/v), and mechanically dissociated in 1×HBSS (Invitrogen) containing 10 mM HEPES. Neurons were plated at a density of 120×10^3 cells/ml onto 18-mm diameter glass coverslips (Assistent) pre-coated with 50 μg/ml poly-D,L-ornithine (Sigma-Aldrich) in plating medium composed of Minimum Essential Medium (MEM, Sigma-Aldrich) supplemented with horse serum (10% v/v, Invitrogen), L-glutamine (2 mM) and Na+ pyruvate (1 mM) (Invitrogen). After attachment for 3-4 h, cells were incubated in culture medium composed of Neurobasal medium supplemented with B27 (1×), L-glutamine (2 mM), and antibiotics (penicillin 200 units/ml, streptomycin, 200 μg/ml; Invitrogen) for up to 4 weeks at 37° C. in a 5% CO2 humidified incubator. Each week, one fifth of the culture medium volume was renewed.
For all experiments on hippocampal cultures, neurons were pre-incubated for 2 hours with either DMSO, PCPZ or CLP257 in a CO2 incubator set at 37° C. Drugs were added directly to the culture medium. For electrophysiology experiments, neurons were also recorded in presence of these drugs in the bath. For biochemistry experiments on rat hippocampo-cortical slices, slices were incubated with either DMSO (vehicle), CLP257, PCPZ, WNK463 or sodium orthovanadate for 2 hours in interface chambers set at 37° C. For human tissue experiments, slices were pre-incubated with either DMSO, CLP257 or PCPZ for 2 hours in interface chambers set at 37° C. and then also recorded in presence of these compounds.
Neurons were washed with ice-cold PBS three times, and then incubated with PBS supplemented with 0.5-1 mg/ml EZ-Link Sulfo-NHS-SS-Biotin (Pierce, Rockford, IL, USA) at 4° C. for 30 min under gentle agitation. Biotinylation was stopped by addition of Tris-HCl (50 mM; pH 7.4) and cells lysed in a modified RIPA buffer containing (in mM): Tris-HCl 50 (pH 7.4), NaCl 150, 1% Nonidet P-40, 0.5% DOC, 0.1% SDS, NaF 50, Na3VO4 1 and protease and phosphatase inhibitors (Roche). Lysates were then collected by gently scraping the bottom of each well. After complete homogenization, samples were centrifuged and the supernatant was collected. A small fraction of the lysates was kept for input KCC2 and total protein quantification using BCA kit (Thermo Scientific). Lysates were mixed with a 50% slurry of Neutravidin beads (Thermo Scientific) and rotated overnight at 4° C. […]
Samples were subjected to electrophoresis on polyacrylamide gradient gels (4-12%) and transferred to nitrocellulose membranes. […] Fluorescence was detected using Odyssey infrared imaging system (LI-COR Bioscience). […]

Compound	somato-dendritic gradient of EGABA (ΔEGABA) (KCC2 [1]; 100 μM CLP257, 2 h, RubiGABA 30 μM uncaging, control 5.32±1.08) [mV/100 μm]	effect on total KCC2 expression (KCC2 [2]; 100 μM CLP257, 2 h, p=0.893)	effect on ratio of surface to total KCC2 expression (KCC2 [2]; 100 μM CLP257, 2 h, p=0.8)	somato-dendritic gradient of EGABA (ΔEGABA) (KCC2 [1]; 10 μM PCPZ, 2 h, isoguvacine 100 μM, control 6.56±0.83) [mV/100 μm]	effect on total KCC2 expression (KCC2 [2]; 10 μM PCPZ, 2 h, p=0.137)	effect on ratio of surface to total KCC2 expression (KCC2 [2]; 10 μM PCPZ, 2 h, p=0.735)
O=C1N=C(N2CCCCN2)S/C1=C\c1ccc(F)cc1O [CLP257, (5Z)-5-[(4-Fluoro-2-hydroxyphenyl)methylene]-2-(tetrahydro-1-(2H)-pyridazinyl)-4(5H)-thiazolone]	9.70±1.13	no effect	no effect			
CN1CCN(CCCN2c3ccccc3Sc3ccc(Cl)cc32)CC1 [PCPZ, prochlorperazine]				11.50±1.53	no effect	no effect
